Reference: ChEMBL document CHEMBL1141920, “Substituted aminobenzimidazole pyrimidines as cyclin-dependent kinase inhibitors” (Bioorg Med Chem Lett, 2005)
Values joined by “and” are separate entries in the source; they are usually repeats but may differ in a detail not shown here. Identical values can stand only once.

Assays:
[1] = target: Cyclin-dependent kinase 1 (Homo sapiens, UniProt P06493); experiment: Inhibitory concentration against Cyclin dependent kinase 1
[2] = Inhibitory concentration against Mitogen-activated protein kinase p38; set-up: species or system Homo sapiens
[3] = target: Mitogen-activated protein kinase 3 (Homo sapiens, UniProt P27361); experiment: Inhibitory concentration against Extracellular signal-regulated kinase 1
[4] = Inhibitory concentration against Casein kinase 2
[5] = Inhibitory concentration against Platelet-derived growth factor receptor
[6] = target: Cyclin-dependent kinase 4 (Homo sapiens, UniProt P11802); experiment: Inhibitory concentration against Cyclin dependent kinase 4
[7] = Inhibitory concentration against Cyclin dependent kinase 2; set-up: species or system Homo sapiens

Chain of Mitogen-activated protein kinase 3 (P27361 whole entry): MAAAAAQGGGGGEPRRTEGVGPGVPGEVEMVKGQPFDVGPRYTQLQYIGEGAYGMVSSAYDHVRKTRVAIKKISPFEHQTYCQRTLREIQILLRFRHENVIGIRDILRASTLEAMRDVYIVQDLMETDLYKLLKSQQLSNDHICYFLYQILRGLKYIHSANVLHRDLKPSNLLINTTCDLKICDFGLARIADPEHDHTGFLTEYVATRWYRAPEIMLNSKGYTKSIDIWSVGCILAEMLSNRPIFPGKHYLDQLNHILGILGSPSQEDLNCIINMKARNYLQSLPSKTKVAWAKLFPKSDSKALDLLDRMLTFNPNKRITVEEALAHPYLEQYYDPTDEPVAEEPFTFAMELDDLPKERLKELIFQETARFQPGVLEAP
Chain of Cyclin-dependent kinase 1 (P06493 whole entry): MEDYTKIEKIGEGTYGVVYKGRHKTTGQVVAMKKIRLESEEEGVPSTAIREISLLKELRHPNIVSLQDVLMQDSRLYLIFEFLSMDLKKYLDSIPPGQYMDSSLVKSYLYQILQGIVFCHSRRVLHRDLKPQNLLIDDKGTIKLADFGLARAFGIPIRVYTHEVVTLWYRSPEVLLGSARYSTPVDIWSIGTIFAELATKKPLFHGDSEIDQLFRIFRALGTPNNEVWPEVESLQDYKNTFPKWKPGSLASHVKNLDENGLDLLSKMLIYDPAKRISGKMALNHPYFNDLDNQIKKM
Chain of Cyclin-dependent kinase 4 (P11802 whole entry): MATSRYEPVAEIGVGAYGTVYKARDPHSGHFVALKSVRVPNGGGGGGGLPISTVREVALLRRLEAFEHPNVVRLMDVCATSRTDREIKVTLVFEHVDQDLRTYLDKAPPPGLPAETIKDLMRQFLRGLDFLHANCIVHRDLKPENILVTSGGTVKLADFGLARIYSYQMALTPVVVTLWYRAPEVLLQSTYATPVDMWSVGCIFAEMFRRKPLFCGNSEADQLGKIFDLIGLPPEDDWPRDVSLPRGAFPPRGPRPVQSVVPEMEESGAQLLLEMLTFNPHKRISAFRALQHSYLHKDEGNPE

SMILES | IC50 [1] | other results
CC(C)Oc1nc(Nc2ccc3nc[nH]c3c2)ncc1C(F)(F)F | 25 nM | –
FC(F)(F)c1ccc(Oc2nc(Nc3ccc4[nH]cnc4c3)ncc2C(F)(F)F)cc1 | > 1000 nM | –
CC(C)COc1nc(Nc2ccc3[nH]cnc3c2)ncc1C(F)(F)F | 2 nM | –
Clc1cccc(CNc2nc(Nc3ccc4[nH]cnc4c3)ncc2Br)c1Cl | 126 nM | –
c1cc(Nc2ccc3[nH]cnc3c2)nc(Nc2ccc3[nH]cnc3c2)n1 | > 1000 nM | –
FC(F)(F)c1cnc(Nc2ccc3nc[nH]c3c2)nc1Nc1ccc(Cl)cc1 | 4 nM | –
FC(F)(F)c1cnc(Nc2ccc3[nH]cnc3c2)nc1Nc1ccc2[nH]cnc2c1 | 10 nM | –
FC(F)(F)c1cnc(Nc2ccc3[nH]cnc3c2)nc1OC1CCCCC1 | 43 nM | –
FC(F)(F)c1cnc(Nc2ccc3nc[nH]c3c2)nc1Nc1cccc(Cl)c1 | 3 nM | –
FC(F)(F)c1cnc(Nc2ccccc2Cl)nc1Nc1ccc2nc[nH]c2c1 | > 1000 nM | –
FC(F)(F)c1cnc(Nc2ccc3nc[nH]c3c2)nc1Oc1ccc(Br)cc1 | 562 nM | –
Fc1cnc(Nc2ccc3nc[nH]c3c2)nc1Nc1ccc2nc[nH]c2c1 | 430 nM | –
Brc1cnc(Nc2ccc3nc[nH]c3c2)nc1Nc1ccc(Oc2cccnc2)cc1 | 34 nM | –
Cc1ccccc1Sc1nc(Nc2ccc3[nH]cnc3c2)ncc1C(F)(F)F | 135 nM | –
CCOc1nc(Nc2ccc3nc[nH]c3c2)ncc1C(F)(F)F | 77 nM | –
NS(=O)(=O)c1ccc(Nc2ncc(C(F)(F)F)c(Nc3ccc4nc[nH]c4c3)n2)cc1 | 0.1 nM | –
FC(F)(F)c1cnc(Nc2ccc3[nH]cnc3c2)nc1Nc1ccccc1Cl | – | IC50 [2]: > 1000 nM; IC50 [3]: > 1000 nM; IC50 [4]: 510 nM; IC50 [5]: 290 nM
c1cc(Nc2ccc3[nH]ccc3c2)nc(Nc2ccc3[nH]ccc3c2)n1 | > 1000 nM | –
COc1cccc(Sc2nc(Nc3ccc4nc[nH]c4c3)ncc2C(F)(F)F)c1 | > 1000 nM | –
Fc1ccc(Nc2nc(Nc3ccc4[nH]cnc4c3)ncc2Br)cc1 | 4 nM | –

SMILES | IC50 [1] | other results
FC(F)(F)c1cnc(Nc2ccc3nc[nH]c3c2)nc1Oc1ccc(Cl)cc1 | 252 nM | –
CN(c1cccc(Cl)c1)c1ncc(C(F)(F)F)c(Nc2ccc3nc[nH]c3c2)n1 | > 1000 nM | –
Brc1cnc(Nc2ccc(Oc3cccnc3)cc2)nc1Nc1ccc2nc[nH]c2c1 | 248 nM | –
Brc1cnc(Nc2ccc3nc[nH]c3c2)nc1NC1CCCc2ccccc21 (centres undefined) | 392 nM | –
FC(F)(F)c1ccc(Nc2ncc(C(F)(F)F)c(Nc3ccc4nc[nH]c4c3)n2)cc1 | 15 nM | –
FC(F)(F)c1cnc(Nc2ccc(Br)cc2)nc1Nc1ccc2[nH]cnc2c1 | 11 nM | IC50 [6]: 260 nM and 1200 nM; IC50 [7]: 73 nM; IC50 [2]: > 1000 nM; IC50 [3]: 750 nM; IC50 [4]: 91 nM; IC50 [5]: 190 nM
Brc1cnc(Nc2ccc3[nH]ccc3c2)nc1Nc1ccc2[nH]ccc2c1 | > 1000 nM | –
Fc1cnc(Nc2ccc3[nH]ccc3c2)nc1Nc1ccc2[nH]ccc2c1 | > 1000 nM | –
Fc1ccc(Oc2nc(Nc3ccc4[nH]cnc4c3)ncc2C(F)(F)F)cc1 | 32 nM | –
Brc1cnc(Nc2ccc3[nH]cnc3c2)nc1NC1CCc2ccccc21 (centres undefined) | 34 nM | –
Cc1ccccc1Oc1nc(Nc2ccc3[nH]cnc3c2)ncc1C(F)(F)F | 4 nM | –
FC(F)(F)c1cnc(Nc2ccc3[nH]ccc3c2)nc1Nc1ccc2[nH]ccc2c1 | > 1000 nM | –
Clc1cccc(Nc2ncc(Br)c(Nc3ccc4nc[nH]c4c3)n2)c1 | 9 nM | –
COc1cccc(Oc2nc(Nc3ccc4nc[nH]c4c3)ncc2C(F)(F)F)c1 | 160 nM | –
COc1ccc(Nc2nc(Nc3ccc4[nH]cnc4c3)ncc2C(F)(F)F)cc1 | 8 nM | IC50 [6]: 57 nM and 230 nM; IC50 [7]: 31 nM; IC50 [2]: > 1000 nM; IC50 [3]: > 1000 nM; IC50 [4]: 11 nM; IC50 [5]: 33 nM
Brc1cnc(Nc2ccc3[nH]cnc3c2)nc1Nc1ccc2c(c1)OCO2 | 9 nM | –
Brc1cnc(Nc2ccc3nc[nH]c3c2)nc1Nc1ccc2nc[nH]c2c1 | 14 nM | –
FC(F)(F)c1cnc(Nc2cccc(Cl)c2)nc1Nc1ccc2[nH]cnc2c1 | 22 nM | –
Cc1cccc(Nc2ncc(C(F)(F)F)c(Nc3ccc4nc[nH]c4c3)n2)c1 | 15 nM | –
